Assay type in all cases: biochemical
For test [1], the target named is T1, Recombinant human HDAC3/SMRT heterodimer (Homo sapiens, UniProt O15379).
T1 construct: FLAG (C); made in house
The experiment in a line: Human HDAC enzyme inhibitor Fluor-de-Lys assay, HDAC3/SMRT. The following applies: recombinant human HDAC3/SMRT, Fluor-de-Lys assay.

Test [2] concerns the target T2, Recombinant human HDAC8 (Homo sapiens, UniProt Q9BY41).
T2 construct: purchased Enzo Life Sciences BML-SE145-0100
T2 sequence (Q9BY41 1-377): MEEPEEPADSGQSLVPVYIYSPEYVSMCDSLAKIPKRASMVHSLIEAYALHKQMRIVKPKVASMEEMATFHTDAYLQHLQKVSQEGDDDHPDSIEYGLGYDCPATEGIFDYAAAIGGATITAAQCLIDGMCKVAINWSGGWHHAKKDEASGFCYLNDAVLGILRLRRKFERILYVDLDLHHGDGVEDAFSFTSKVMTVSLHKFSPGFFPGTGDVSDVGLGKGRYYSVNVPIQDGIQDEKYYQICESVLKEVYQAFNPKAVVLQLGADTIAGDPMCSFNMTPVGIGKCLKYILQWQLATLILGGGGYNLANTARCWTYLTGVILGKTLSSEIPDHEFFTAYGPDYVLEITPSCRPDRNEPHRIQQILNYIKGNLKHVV
Kind of test: Human HDAC enzyme inhibitor Fluor-de-Lys assay, HDAC8. The following applies: recombinant human HDAC8, Fluor-de-Lys assay.

The target of test [3] is T3, HDAC6 (Homo sapiens, UniProt Q9UBN7).
T3 sequence (Q9UBN7 1-1215): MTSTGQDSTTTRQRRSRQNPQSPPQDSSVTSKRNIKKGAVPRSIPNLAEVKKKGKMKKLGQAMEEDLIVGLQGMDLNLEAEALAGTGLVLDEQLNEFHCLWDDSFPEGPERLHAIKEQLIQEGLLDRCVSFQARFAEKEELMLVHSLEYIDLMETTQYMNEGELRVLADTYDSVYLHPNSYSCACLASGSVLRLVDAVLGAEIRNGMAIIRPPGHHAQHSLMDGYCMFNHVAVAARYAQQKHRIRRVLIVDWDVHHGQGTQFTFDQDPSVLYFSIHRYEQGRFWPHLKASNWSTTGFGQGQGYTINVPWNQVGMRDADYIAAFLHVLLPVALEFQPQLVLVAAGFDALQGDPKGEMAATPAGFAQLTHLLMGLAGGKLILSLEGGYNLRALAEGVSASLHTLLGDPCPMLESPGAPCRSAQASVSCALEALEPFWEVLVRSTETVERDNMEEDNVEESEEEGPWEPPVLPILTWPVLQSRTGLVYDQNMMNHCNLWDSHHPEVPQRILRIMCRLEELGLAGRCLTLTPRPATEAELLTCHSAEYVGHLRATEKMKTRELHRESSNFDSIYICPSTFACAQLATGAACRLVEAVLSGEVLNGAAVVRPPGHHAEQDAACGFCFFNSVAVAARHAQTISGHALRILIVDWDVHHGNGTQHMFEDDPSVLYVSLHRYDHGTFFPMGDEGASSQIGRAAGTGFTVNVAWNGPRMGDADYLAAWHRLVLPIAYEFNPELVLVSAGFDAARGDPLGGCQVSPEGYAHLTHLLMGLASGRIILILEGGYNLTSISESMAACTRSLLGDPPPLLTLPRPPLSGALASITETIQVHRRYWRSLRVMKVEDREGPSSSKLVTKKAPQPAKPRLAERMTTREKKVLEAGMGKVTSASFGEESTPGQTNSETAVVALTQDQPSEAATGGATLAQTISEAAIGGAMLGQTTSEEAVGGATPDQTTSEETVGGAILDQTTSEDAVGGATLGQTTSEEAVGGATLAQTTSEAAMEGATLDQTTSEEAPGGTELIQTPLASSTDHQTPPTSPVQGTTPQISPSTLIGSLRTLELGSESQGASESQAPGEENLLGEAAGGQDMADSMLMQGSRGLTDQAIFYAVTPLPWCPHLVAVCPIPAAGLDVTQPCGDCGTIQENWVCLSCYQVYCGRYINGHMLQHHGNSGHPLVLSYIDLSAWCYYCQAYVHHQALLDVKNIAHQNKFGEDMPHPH
The experiment in a line: Human HDAC enzyme inhibitor Fluor-de-Lys assay, HDAC6. The following applies: HDAC6, Fluor-de-Lys assay.

Test [4] addresses T4, Recombinant human HDAC2 (Homo sapiens, UniProt Q92769).
T4 construct: Full length human HDAC2-FLAG was expressed in baculovirus infected Sf9 cells; FLAG (C); made in house; host or cells: Sf9 (baculovirus)
The experiment in a line: Human HDAC enzyme inhibitor Fluor-de-Lys assay, HDAC2. The following applies: recombinant human HDAC2, Fluor-de-Lys assay. In a few lines: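 Fluor-de-Lys format at room temperature (23° C.): compounds titrated 10-point, 1:3, preincubated with HDAC before substrate addition. Developer with excess HDAC inhibitor ends the reaction, and trypsin-liberated AMC fluorescence is the read-out.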

IC50 data for six molecules are collected here from patent publication US12590099B2, “Inhibitors of histone deacetylase useful for the treatment or prevention of HIV infection” (Merck Sharp & Dohme LLC, priority 2018, dated 2026).

T4 sequence (Q92769 whole entry): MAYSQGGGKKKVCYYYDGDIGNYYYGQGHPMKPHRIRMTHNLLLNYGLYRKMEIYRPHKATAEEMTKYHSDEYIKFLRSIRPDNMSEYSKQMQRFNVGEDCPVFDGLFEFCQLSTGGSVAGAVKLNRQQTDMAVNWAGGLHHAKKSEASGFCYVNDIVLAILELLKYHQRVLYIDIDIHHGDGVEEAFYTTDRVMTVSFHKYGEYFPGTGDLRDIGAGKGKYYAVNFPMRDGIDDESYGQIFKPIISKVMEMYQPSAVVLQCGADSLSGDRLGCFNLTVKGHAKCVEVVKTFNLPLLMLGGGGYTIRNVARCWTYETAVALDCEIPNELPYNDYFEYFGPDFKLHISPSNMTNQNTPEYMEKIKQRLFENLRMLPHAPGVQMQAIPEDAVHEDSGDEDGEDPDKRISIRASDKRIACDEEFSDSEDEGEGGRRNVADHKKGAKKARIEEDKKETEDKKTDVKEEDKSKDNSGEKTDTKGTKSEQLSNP
T1 sequence (O15379 whole entry): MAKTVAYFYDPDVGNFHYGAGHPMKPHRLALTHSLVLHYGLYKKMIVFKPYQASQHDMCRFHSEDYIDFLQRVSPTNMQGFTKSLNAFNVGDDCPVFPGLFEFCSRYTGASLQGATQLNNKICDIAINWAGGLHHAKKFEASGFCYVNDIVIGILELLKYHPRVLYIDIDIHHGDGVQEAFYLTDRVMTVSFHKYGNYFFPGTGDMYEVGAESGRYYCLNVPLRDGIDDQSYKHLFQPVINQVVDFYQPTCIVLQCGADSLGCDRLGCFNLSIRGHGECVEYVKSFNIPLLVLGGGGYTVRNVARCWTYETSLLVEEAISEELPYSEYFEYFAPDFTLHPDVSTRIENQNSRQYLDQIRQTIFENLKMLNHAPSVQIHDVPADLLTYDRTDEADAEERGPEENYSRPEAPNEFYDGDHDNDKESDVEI
T1 sequence (Q9Y618 1-899 partner limits assumed): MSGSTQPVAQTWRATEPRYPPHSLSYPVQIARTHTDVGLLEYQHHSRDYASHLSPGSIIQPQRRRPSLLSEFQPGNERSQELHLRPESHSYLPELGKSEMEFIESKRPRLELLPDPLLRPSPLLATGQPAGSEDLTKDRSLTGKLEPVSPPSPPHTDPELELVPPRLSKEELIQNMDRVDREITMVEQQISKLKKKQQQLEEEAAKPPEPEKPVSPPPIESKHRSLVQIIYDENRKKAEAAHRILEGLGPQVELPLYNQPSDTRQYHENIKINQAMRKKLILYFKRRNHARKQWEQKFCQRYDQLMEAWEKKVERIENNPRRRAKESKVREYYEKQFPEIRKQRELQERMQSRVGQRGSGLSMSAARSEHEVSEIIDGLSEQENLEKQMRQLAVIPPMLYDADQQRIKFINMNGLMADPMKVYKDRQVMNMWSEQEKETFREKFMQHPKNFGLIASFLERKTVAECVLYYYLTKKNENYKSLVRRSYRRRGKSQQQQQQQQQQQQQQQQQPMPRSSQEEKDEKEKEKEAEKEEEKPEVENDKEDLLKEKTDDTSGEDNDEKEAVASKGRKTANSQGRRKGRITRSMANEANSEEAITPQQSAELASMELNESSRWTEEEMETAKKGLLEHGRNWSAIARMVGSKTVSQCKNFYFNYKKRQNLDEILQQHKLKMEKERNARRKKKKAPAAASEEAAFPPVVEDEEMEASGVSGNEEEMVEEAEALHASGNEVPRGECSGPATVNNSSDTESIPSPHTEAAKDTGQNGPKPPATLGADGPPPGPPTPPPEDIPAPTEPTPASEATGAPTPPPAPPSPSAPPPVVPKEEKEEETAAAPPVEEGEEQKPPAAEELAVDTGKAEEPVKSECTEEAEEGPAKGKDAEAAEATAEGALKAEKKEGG

As usually defined, the IC50 is the midpoint of a concentration-inhibition curve. Take `CCC(=O)CCCCC[C@H](NC(=O)C1=NOC2(CCN(C)CC2)C1)c1ncc(-c2ccc(-c3cnccn3)cc2OC)o1` [Compound 237, N-{(1S)-1-[5-(2-methoxy-4-pyrazin-2-ylphenyl)-1,3-oxazol-2-yl]-7-oxononyl}-8-methyl-1-oxa-2,8-diazaspiro[4.5]dec-2-ene-3-carboxamide]: the IC50 is 6.06 nM in test [1], over 0.9 µM in test [2], over 900 nM in test [3] and 27.2 nM in test [4].

With `CCC(=O)CCCCCC(NC(=O)C1CCC2(CC1)OC(=O)c1ccncc12)c1nnc(-c2cc3ccccc3nc2OC)o1` (stereo not drawn) [Compound 363], the IC50 in test [1] is 33.5 nM; in test [2], 25.5 µM; in test [3] it was 2040 nM; in test [4], 234 nM.

In the case of `CCC(=O)CCCCC[C@H](NC(=O)[C@H]1CC12CCN(CC1CC1)CC2)c1ncc(-c2cc3ccc(C)nc3cc2F)[nH]1` [Compound 228], the IC50 is 0.19 nM in test [1], over 0.9 µM in test [2], over 900 nM in test [3] and 0.6 nM in test [4].

As to `CCC(=O)CCCCC[C@@H](NC(=O)C1CCC2(CC1)CN(C)C2)c1ncc(-c2ccccc2)[nH]1` [Compound 310], the IC50 was 10.4 nM in test [1], 6.5 µM in test [2], 6050 nM in test [3] and 167 nM in test [4].

Consider `CCC(=O)CCCCC[C@H](NC(=O)[C@H]1CC12CCN(C)CC2)c1ncc(-c2ccc(F)cc2F)[nH]1` [Compound 289], for which the concentration for half-maximal inhibition (IC50) came to 21.7 nM in test [1], 3.75 µM in test [2], 10400 nM in test [3] and 259 nM in test [4].

With `CCC(=O)CCCCC[C@H](NC(=O)CC1CC2(C1)CN(C)C2)c1ncc(-c2cc3ccccc3nc2O)[nH]1` [Compound 326], the IC50 in test [1] is 1.58 nM; in test [2], over 4.5 µM; in test [3], over 1500 nM; in test [4] it was 9 nM.
